Data: patent US10723705B2, “Heterocyclic compounds and uses thereof” (Incyte Corporation, priority 2015, dated 2020)

These compounds were tested against Human recombinant Histone Deacetylase 8 (HDAC8) (Homo sapiens (Human), UniProt Q9BY41) (assay: HDAC8 Enzymatic Assay (HDAC-Glo I/II luminescence)). Details: HDAC8; read-out: IC50.
Format: biochemical
Experimental: HDAC-Glo™ I/II Assay Kit was purchased from Promega Corporation (Madison, Wis.), including the following components: HDAC-Glo I/II Buffer (25 mM Tris buffer, pH 8.0, supplemented with 137 mM: NaCl, 2.7 mM KCl, 1% v/v Triton X-100 and 1 mM: MgCl2), luminogenic substrates Boc-GAK(Ac)-aminoluciferin (HDAC-Glo I/II substrate), proprietary developer reagent (containing trypsin). Human recombinant Histone Deacetylase 8 (HDAC8) was purchased from Enzo Life Sciences (Plymouth Meeting, Pa.).
The HDAC8 reaction was performed at room temperature in white 384-well polystyrene, flat-bottom microtiter plate (Greiner Bio-one, Monroe, N.C.) in a final volume of 20 μL. Test compounds were first diluted serially in DMSO and 100 nL were transferred to the plate wells by Echo 550 (Labcyte, Sunnyvale, Calif.) before the addition of other reaction components. The final concentration of DMSO in the assay was 0.5%. The HDAC-Glo I/II assay reagent was prepared by rehydration of lyophilized HDAC-Glo I/II substrate in 10 mL. HDAC-Glo I/II assay buffer followed with the addition of 10 μL of developer reagent. 10 uL of 3 nM HDAC8 in the HDAC-Glo I/II assay buffer were first dispensed into the microliter plate containing the compounds and incubated at room temperature for 30 min. The reactions were initiated with the addition of 10 uL HDAC-Glo I/II assay reagent with Multidrop (Thermo, Waltham, Mass.). The final concentration of HDAC8 and HDAC-Glo I/II substrate in the reaction were 1.5 nM and 50 μM, respectively. The assay plate was mixed for 1 min by orbital shaking (500 rpm) and centrifuged for 1 min at 1500 rpm. After 15 min at room temperature, luminescence signals were measured on TopCount (Perkin Elmer). Wells with no compound served as the positive controls and wells containing no HDAC8 were used as negative controls. IC50 determination was performed by fitting the curve of percentage control activity versus the log of the compound concentration using the GraphPad Prism 6.0 software.

Chain of Human recombinant Histone Deacetylase 8 (HDAC8) (Q9BY41 whole entry): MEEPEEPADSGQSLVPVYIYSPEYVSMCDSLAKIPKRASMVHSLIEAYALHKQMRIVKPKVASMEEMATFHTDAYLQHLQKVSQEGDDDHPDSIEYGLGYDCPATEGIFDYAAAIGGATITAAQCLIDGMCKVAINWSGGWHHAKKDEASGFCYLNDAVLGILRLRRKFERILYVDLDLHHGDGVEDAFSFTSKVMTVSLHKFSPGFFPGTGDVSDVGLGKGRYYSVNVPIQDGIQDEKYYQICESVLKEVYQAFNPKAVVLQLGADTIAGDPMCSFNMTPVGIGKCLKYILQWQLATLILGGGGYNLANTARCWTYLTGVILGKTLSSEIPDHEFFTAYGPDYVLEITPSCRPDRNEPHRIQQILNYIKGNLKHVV

| IC50 | SMILES |
| --- | --- |
| 258 nM | O=C(NO)C(Cc1ccccc1)c1cnc2c(Cl)cccn12 (stereo not drawn) [Compound I-0134, 2-(8-Chloroimidazo[1,2-a]pyridin-3-yl)-N-hydroxy-3-phenylpropanamide] |
| 469 nM | O=C(NO)C(Cc1ccccc1)n1cc2cccc(CNC3CC3)c2n1 (stereo not drawn) [Compound I-0180, 2-{7-[(Cyclopropylamino)methyl]-2H-indazol-2-yl}-N-hydroxy-3-phenylpropanamide] |
| 87 nM | O=C(NO)C(Cc1ccccc1)n1ncc2cc(-c3ccncc3)ccc21 (stereo not drawn) [Compound I-0011, N-hydroxy-3-phenyl-2-(5-pyridin-4-yl-1H-indazol-1-yl)propanamide] |
| 5.7 nM | O=C(NO)C(Cc1ccccc1)n1nc2c(Cl)nccc2c1C#CC1CC1 (stereo not drawn) [Compound I-0127, 2-[7-Chloro-3-(cyclopropylethynyl)-2H-pyrazolo[3,4-c]pyridin-2-yl]-N-hydroxy-3-phenylpropanamide] |

Same assay, conditions: class symbols, Table 14; read-out: HDAC8 IC50

| IC50 | SMILES |
| --- | --- |
| 200 to 500 nM | O=C(NO)C(Cc1ccccc1)n1cc2ccc(-c3ccccc3)cc2n1 (stereo not drawn) [Compound I-0006, N-hydroxy-3-phenyl-2-(6-phenyl-2H-indazol-2-yl)propanamide] |
| 200 to 500 nM | Cn1nccc1-c1cc2cnn(C(Cc3ccccc3)C(=O)NO)c2cn1 (stereo not drawn) [Compound I-0090, N-hydroxy-2-(5-(1-methyl-1H-pyrazol-5-yl)-1H-pyrazolo[3,4-c]pyridin-1-yl)-3-phenylpropanamide] |
| > 500 nM | O=C(NO)C(Cc1ccccc1)c1cnc2cc(-c3ccncc3)ccn12 (stereo not drawn) [Compound I-0113, N-hydroxy-3-phenyl-2-(7-(pyridin-4-yl)imidazo[1,2-a]pyridin-3-yl)propanamide] |
| > 500 nM | COc1ccc(-c2cc3cnn(C(Cc4ccccc4)C(=O)NO)c3cn2)cn1 (stereo not drawn) [Compound I-0096, N-hydroxy-2-(5-(6-methoxypyridin-3-yl)-1H-pyrazolo[3,4-c]pyridin-1-yl)-3-phenylpropanamide] |
| ≤ 50 nM | O=C(NO)C(Cc1ccccc1)n1cc2ccnc(-c3cncnc3)c2n1 (stereo not drawn) [Compound I-0198, N-hydroxy-3-phenyl-2-(7-(pyrimidin-5-yl)-2H-pyrazolo[3,4-c]pyridin-2-yl)propanamide] |
| 50 to 200 nM | Cn1nccc1-c1ccc2c(cnn2C(Cc2ccccc2)C(=O)NO)c1 (stereo not drawn) [Compound I-0010, N-hydroxy-2-(5-(1-methyl-1H-pyrazol-5-yl)-1H-indazol-1-yl)-3-phenylpropanamide] |
| 50 to 200 nM | O=C(NO)C(Cc1ccccc1)n1ncc2cc(-c3ccncc3)ccc21 (stereo not drawn) [Compound I-0011, N-hydroxy-3-phenyl-2-(5-pyridin-4-yl-1H-indazol-1-yl)propanamide] |
| 50 to 200 nM | Cn1cc(-c2ccc3c(cnn3C(Cc3ccccc3)C(=O)NO)c2)cn1 (stereo not drawn) [Compound I-0105, N-hydroxy-2-(5-(1-methyl-1H-pyrazol-4-yl)-1H-indazol-1-yl)-3-phenylpropanamide] |
| > 500 nM | O=C(NO)C(Cc1ccccc1)n1cc2cc(-c3ccccc3)ccc2n1 (stereo not drawn) [Compound I-0036, N-hydroxy-3-phenyl-2-(5-phenyl-2H-indazol-2-yl)propanamide] |
| 200 to 500 nM | COc1ncc(-c2ccc3nn(C(Cc4ccccc4)C(=O)NO)cc3c2)cn1 (stereo not drawn) [Compound I-0035, N-hydroxy-2-(5-(2-methoxypyrimidin-5-yl)-2H-indazol-2-yl)-3-phenylpropanamide] |
| 200 to 500 nM | O=C(NO)C(Cc1ccccc1)n1cc2cccc(Br)c2n1 (stereo not drawn) [Compound I-0068, 2-(7-bromo-2H-indazol-2-yl)-N-hydroxy-3-phenylpropanamide] |
| 200 to 500 nM | COc1ccc(-c2ccc3nn(C(Cc4ccccc4)C(=O)NO)c(C#CC4CC4)c3c2)cn1 (stereo not drawn) [Compound I-0046, 2-(3-(cyclopropylethynyl)-5-(6-methoxypyridin-3-yl)-2H-indazol-2-yl)-N-hydroxy-3-phenylpropanamide] |
| 50 to 200 nM | Cn1nc(C(Cc2ccccc2)C(=O)NO)c2ccc(-c3ccncc3)cc21 (stereo not drawn) [Compound I-0205, N-hydroxy-2-(1-methyl-6-(pyridin-4-yl)-1H-indazol-3-yl)-3-phenylpropanamide] |
| > 500 nM | NC(=O)c1ccc(-c2cccc3c2cnn3C(Cc2ccccc2)C(=O)NO)cc1 (stereo not drawn) [Compound I-0080, 4-(1-(1-(hydroxyamino)-1-oxo-3-phenylpropan-2-yl)-1H-indazol-4-yl)benzamide] |
| 200 to 500 nM | O=C(NO)C(Cc1ccccc1)n1cc2cc(-c3ccncc3)ccc2n1 (stereo not drawn) [Compound I-0050, N-hydroxy-3-phenyl-2-(5-(pyridin-4-yl)-2H-indazol-2-yl)propanamide] |
| ≤ 50 nM | O=C(NO)C(Cc1ccccc1)n1nc2c(-c3cccnc3)cccc2c1C#CC1CC1 (stereo not drawn) [Compound I-0155, 2-(3-(cyclopropylethynyl)-7-(pyridin-3-yl)-2H-indazol-2-yl)-N-hydroxy-3-phenylpropanamide] |
| 50 to 200 nM | O=C(NO)C(Cc1ccccc1)n1ncc2c(-c3cncnc3)nccc21 (stereo not drawn) [Compound I-0071, N-hydroxy-3-phenyl-2-(4-(pyrimidin-5-yl)-1H-pyrazolo[4,3-c]pyridin-1-yl)propanamide] |
| 50 to 200 nM | O=C(NO)C(Cc1ccccc1)n1nc2ccc(-c3ccncc3)cc2c1C#CC1CC1 (stereo not drawn) [Compound I-0029, 2-(3-(cyclopropylethynyl)-5-(pyridin-4-yl)-2H-indazol-2-yl)-N-hydroxy-3-phenylpropanamide] |
| > 500 nM | Cn1cc(-c2cc3cnn(C(Cc4ccccc4)C(=O)NO)c3cn2)cn1 (stereo not drawn) [Compound I-0091, N-hydroxy-2-(5-(1-methyl-1H-pyrazol-4-yl)-1H-pyrazolo[3,4-c]pyridin-1-yl)-3-phenylpropanamide] |
| 50 to 200 nM | O=C(NO)C(Cc1ccccc1)n1ncc2nc(Cl)ccc21 (stereo not drawn) [Compound I-0076, 2-(5-chloro-1H-pyrazolo[4,3-b]pyridin-1-yl)-N-hydroxy-3-phenylpropanamide] |

The next lines start with the compound.

| SMILES | IC50 |
| --- | --- |
| COCc1ccc(-c2ccn3c(C(Cc4ccccc4)C(=O)NO)cnc3c2)cc1 (stereo not drawn) [Compound I-0150, N-hydroxy-2-(7-(4-(methoxymethyl)phenyl)imidazo[1,2-a]pyridin-3-yl)-3-phenylpropanamide] | > 500 nM |
| O=C(NO)C(Cc1ccccc1)n1cc2cccc(CN3CCC(N4CCOCC4)CC3)c2n1 (stereo not drawn) [Compound I-0185, N-hydroxy-2-(7-((4-morpholinopiperidin-1-yl)methyl)-2H-indazol-2-yl)-3-phenylpropanamide] | > 500 nM |
| O=C(NO)C(Cc1ccccc1)c1cnc2c(Cl)cccn12 (stereo not drawn) [Compound I-0134, 2-(8-Chloroimidazo[1,2-a]pyridin-3-yl)-N-hydroxy-3-phenylpropanamide] | 200 to 500 nM |
| O=C(NO)C(Cc1ccccc1)n1cc2cccc(CNC3CC3)c2n1 (stereo not drawn) [Compound I-0180, 2-{7-[(Cyclopropylamino)methyl]-2H-indazol-2-yl}-N-hydroxy-3-phenylpropanamide] | 200 to 500 nM |
| O=C(NO)C(Cc1ccccc1)n1cc2cccc(CN3CCOCC3)c2n1 (stereo not drawn) [Compound I-0183, N-hydroxy-2-(7-(morpholinomethyl)-2H-indazol-2-yl)-3-phenylpropanamide] | 200 to 500 nM |
| O=C(NO)C(Cc1ccccc1)n1cc2c(C3CC3)cccc2n1 (stereo not drawn) [Compound I-0062, 2-(4-cyclopropyl-2H-indazol-2-yl)-N-hydroxy-3-phenylpropanamide] | > 500 nM |
| COc1ncc(-c2ccc3nn(C(Cc4ccccc4)C(=O)NO)c(C#CC4CC4)c3c2)cn1 (stereo not drawn) [Compound I-0031, 2-(3-(cyclopropylethynyl)-5-(2-methoxypyrimidin-5-yl)-2H-indazol-2-yl)-N-hydroxy-3-phenylpropanamide] | ≤ 50 nM |
| O=C(NO)C(Cc1ccccc1)c1cnc2c(C3CC3)cccn12 (stereo not drawn) [Compound I-0170, 2-(8-cyclopropylimidazo[1,2-a]pyridin-3-yl)-N-hydroxy-3-phenylpropanamide] | > 500 nM |
| COC(=O)C(Cc1ccccc1)n1cc2cccc(C(=O)N3CCC(F)(F)CC3)c2n1 (stereo not drawn) [Compound I-0172, methyl 2-(7-(4,4-difluoropiperidine-1-carbonyl)-2H-indazol-2-yl)-3-phenylpropanoate] | 200 to 500 nM |
| CN(C)C(=O)c1cccc(-c2cccc3c(C#CC4CC4)n(C(Cc4ccccc4)C(=O)NO)nc23)c1 (stereo not drawn) [Compound I-0159, 3-(3-(cyclopropylethynyl)-2-(1-(hydroxyamino)-1-oxo-3-phenylpropan-2-yl)-2H-indazol-7-yl)-N,N-dimethylbenzamide] | ≤ 50 nM |
| CN(C)C(=O)c1ccc(-c2cccc3cn(C(Cc4ccccc4)C(=O)NO)nc23)cc1 (stereo not drawn) [Compound I-0110, 4-(2-(1-(hydroxyamino)-1-oxo-3-phenylpropan-2-yl)-2H-indazol-7-yl)-N,N-dimethylbenzamide] | ≤ 50 nM |
| O=C(NO)C(Cc1ccccc1)n1cc2cccc(CNC3CCOCC3)c2n1 (stereo not drawn) [Compound I-0182, N-hydroxy-3-phenyl-2-(7-((tetrahydro-2H-pyran-4-ylamino)methyl)-2H-indazol-2-yl)propanamide] | > 500 nM |
| O=C(NO)C(Cc1ccccc1)n1nc2c(Cl)nccc2c1C#CC1CC1 (stereo not drawn) [Compound I-0127, 2-[7-Chloro-3-(cyclopropylethynyl)-2H-pyrazolo[3,4-c]pyridin-2-yl]-N-hydroxy-3-phenylpropanamide] | ≤ 50 nM |
| O=C(NCCN1CCOCC1)c1cccc2cn(C(Cc3ccccc3)C(=O)NO)nc12 (stereo not drawn) [Compound I-0179, 2-(1-(hydroxyamino)-1-oxo-3-phenylpropan-2-yl)-N-(2-morpholinoethyl)-2H-indazole-7-carboxamide] | 50 to 200 nM |
| O=C(NO)C(Cc1ccccc1)n1nc2c(Cl)cccc2c1C#CC1CC1 (stereo not drawn) [Compound I-0136, 2-(7-chloro-3-(cyclopropylethynyl)-2H-indazol-2-yl)-N-hydroxy-3-phenylpropanamide] | ≤ 50 nM |
